Results from patent publication US8562986B2, “Engineered anti-alpha V-integrin hybrid antibodies” (Merck Patent GmbH, priority 2007, dated 2013).
Entries after “also recorded” stand apart in the source; their conditions may differ. Where two headings read alike, the source gives them in different places.

Legend:
[1] = test system: HUVEC; assay: cells; details: for additive effect with Cilengitide: chemotherapeutic combined with Cilengitide; for additive effect with DI-17E6: chemotherapeutic combined with DI-17E6; for additive effect with Mab 17E6: chemotherapeutic combined with Mab 17E6
Protocol: The experimental design gives answer to the question whether blockade of the one lowered the IC50 of the other for blockade endothelial cell growth in the presence of tumor growth factors VEGFA and FGF2.
Plates were coated with 100 μl VN at 1 μg/ml in PBS per 96-well at 4° C. overnight. […] When added in combination the two test substances were mixed at the starting concentrations and the mixture was serially diluted as for the single agents alone. In some assays the chemotherapeutics were serially diluted in the presence of a constant amount of the alpha V blockers at the IC50 or IC70 concentrations. Plates were incubated for 72 hours, then relative cell number was determined by the addition of 20 ul/well Alamar Blue (Resazurin).
Points were run in duplicate or in triplicate. Reagent blanks, containing media plus Alamar Blue without cells, were run on each plate.
Tests were routinely run using HUVEC in media containing 10 ng/ml FGF-2 or HDMVEC in media containing 10 ng/ml VEGF.

[2] = test system: NP18-b3 pancreatic tumor; assay: Orthotopic pancreatic xenograft; type: in vivo, nude mice; details: EMD 525797 500 μg per animal or gemcitabine 50 mg/Kg, i.p. 3 times a week; 6 weeks
Protocol: NP18-b3 pancreatic human cell line, which expresses αvβ3-integrin, was implanted orthotopically into the pancreas of immunosuppressed mice. The animals were randomized to and one week later treatment with drugs and vehicle started.
Tumors were removed and cut into pieces of 10 mg each. These pieces were then sutured to the pancreas of healthy animals (one piece per animal). 4-6 weeks later, tumors were removed, cut into pieces again and stitched into new animals. Those new animals were then randomized and one week later treatment with drugs and vehicle was started. EMD 525797 was dosed i.p. at 500 μg per animal three times a week. Gemcitabine was administered as a suboptimal dose of 50 mg/Kg 3 times a week (suboptimal dose based on previous studies). In a fourth group, EMD 525797 was combined with suboptimal doses of gemcitabine based on previous experiments. Tumor growth measurement (weight of the removed tumors) was made 6 weeks after the tumor grafting.

[3] = test system: CAKI-1 renal carcinoma; assay: CAKI-1 renal carcinoma xenograft, monotherapy; type: in vivo, SCID or nude mice; details: i.p. once per week
[4] = test system: human endothelial cell adhesion to vitronectin; assay: Endothelial cell adhesion to vitronectin; type: cell-based; details: read-out: EC50, inhibition of human endothelial cell adhesion to vitronectin
[5] = T-cell epitope mapping score; set-up: species or system human; details: T-cell epitope scoring
[6] = test system: human melanoma cell lines m21, SKMEL-23, SKMEI, MeWo, WM-793; details: cisplatin, paclitaxel, vinblastin, vincristin, temoyolomide
[7] = test system: bFGF induced angiogenesis; assay: Matrigel plug model in monkeys; type: in vivo, Cynomologus monkeys; details: 6 days
Protocol: Matrigel plugs containing bFGF were implanted s.c. into the abdomen of healthy Cynomologus monkeys. The animals were injected once with EMD 525797 i.v. at either 10 mg/Kg or 30 mg/Kg. Evaluation of angiogenesis was carried out 6 days after by quantification of the hemoglobin content in the Matrigel plugs.

[8] = test system: bacteria; assay: Bacterial screening test for mutagenic potential; type: cell-based
[9] = test system: CAKI-1 xenograft tumors; assay: CAKI-1 renal cell carcinoma xenograft, with Erbitux; type: in vivo, mice; details: 17.1 mg/kg loading then […] weekly i.p.
Protocol: The renal cell carcinoma cell line CAKI-1 was grown in RPMI containing 10% FCS (heat-inactivated) plus 2 mM glutamine. 1 mM sodium pyruvate. 100 units/ml penicillin and 100 ug/ml streptomycin. Cells were passaged at confluence by washing once in cation-free PBS followed by a 3 minute incubation in trypsin (0.5 ug/ml)/EDTA (0.2 ug/ml) solution in PBS at 37° C. Cells were recovered in medium, centrifuged and taken up in medium and counted.
The treatment started for all groups at day 0 of experiment (same day of cell injection).

[10] = test system: M21-L tumors; assay: SCID mouse-human skin chimera model; type: in vivo; details: 1 mg/dose i.p. 3 times per week, from one day after inoculation
Description: Human skin containing human M21 melanoma cells were grafted by implantation/transplantation onto SCID or nude mice. Experimental tumors grew in this tissue after intradermal inoculation of tumor cells and the initial angiogenic vasculature was derived from vessels in the human skin. In the next experiment, the use of M21-L cells that have no av-integrins means that only those integrins expressed on the endothelial cells within the grafted human skin were targeted.

[11] = Single dose immunogenicity study in monkeys (sandwich ELISA); type: in vivo, monkey; details: 1 mg/Kg single i.v., 1, 3 and 6 weeks
Protocol: In another study the pharmacy kinetic parameters of a single dose of DI-17E6 in monkeys was assessed and in addition, this study was planned to investigate the immunogenicity of DI-17E6. […] Length of the assay was 6 weeks. Serums were drawn pre-dose, and 1, 3, and 6 weeks after administration. Levels of monkey antibodies against DI-17E6 were analyzed. In this study, immunogenicity was directly addressed using a specific sandwich ELISA method designated for this type of studies (method not validated yet).

[12] = target: αvβ3 integrin (Homo sapiens, UniProt P06756); assay: Integrin binding ELISA
Sequence of αvβ3 integrin (P06756 31-889 limits assumed): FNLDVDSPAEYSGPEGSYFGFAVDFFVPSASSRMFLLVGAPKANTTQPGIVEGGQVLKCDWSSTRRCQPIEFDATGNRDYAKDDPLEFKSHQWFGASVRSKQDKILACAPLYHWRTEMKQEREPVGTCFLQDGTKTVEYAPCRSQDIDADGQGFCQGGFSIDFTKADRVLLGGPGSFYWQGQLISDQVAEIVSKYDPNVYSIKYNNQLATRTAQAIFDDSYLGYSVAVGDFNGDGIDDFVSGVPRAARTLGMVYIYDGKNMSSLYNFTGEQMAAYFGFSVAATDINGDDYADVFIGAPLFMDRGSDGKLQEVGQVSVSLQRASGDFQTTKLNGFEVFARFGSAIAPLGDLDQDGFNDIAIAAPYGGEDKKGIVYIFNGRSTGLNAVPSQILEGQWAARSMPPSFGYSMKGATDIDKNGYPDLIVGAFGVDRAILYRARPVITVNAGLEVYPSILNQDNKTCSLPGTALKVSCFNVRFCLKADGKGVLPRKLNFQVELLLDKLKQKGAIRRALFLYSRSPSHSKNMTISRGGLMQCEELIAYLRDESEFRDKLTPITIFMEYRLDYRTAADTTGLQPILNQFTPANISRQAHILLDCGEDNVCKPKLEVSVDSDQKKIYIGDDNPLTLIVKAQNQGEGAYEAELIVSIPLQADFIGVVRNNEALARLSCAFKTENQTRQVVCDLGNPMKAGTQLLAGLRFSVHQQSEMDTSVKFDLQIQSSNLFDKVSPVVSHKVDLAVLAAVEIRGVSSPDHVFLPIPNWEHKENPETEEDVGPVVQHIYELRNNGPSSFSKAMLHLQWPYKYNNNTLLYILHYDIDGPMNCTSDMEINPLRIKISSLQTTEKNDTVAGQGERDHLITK
Sequence of αvβ3 integrin (P06756 891-1048 partner limits assumed): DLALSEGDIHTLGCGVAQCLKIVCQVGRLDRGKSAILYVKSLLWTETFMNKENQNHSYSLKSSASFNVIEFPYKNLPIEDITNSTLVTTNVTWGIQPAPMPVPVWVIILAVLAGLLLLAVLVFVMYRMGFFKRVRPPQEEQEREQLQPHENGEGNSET
Sequence of αvβ3 integrin (P05106 27-788 partner): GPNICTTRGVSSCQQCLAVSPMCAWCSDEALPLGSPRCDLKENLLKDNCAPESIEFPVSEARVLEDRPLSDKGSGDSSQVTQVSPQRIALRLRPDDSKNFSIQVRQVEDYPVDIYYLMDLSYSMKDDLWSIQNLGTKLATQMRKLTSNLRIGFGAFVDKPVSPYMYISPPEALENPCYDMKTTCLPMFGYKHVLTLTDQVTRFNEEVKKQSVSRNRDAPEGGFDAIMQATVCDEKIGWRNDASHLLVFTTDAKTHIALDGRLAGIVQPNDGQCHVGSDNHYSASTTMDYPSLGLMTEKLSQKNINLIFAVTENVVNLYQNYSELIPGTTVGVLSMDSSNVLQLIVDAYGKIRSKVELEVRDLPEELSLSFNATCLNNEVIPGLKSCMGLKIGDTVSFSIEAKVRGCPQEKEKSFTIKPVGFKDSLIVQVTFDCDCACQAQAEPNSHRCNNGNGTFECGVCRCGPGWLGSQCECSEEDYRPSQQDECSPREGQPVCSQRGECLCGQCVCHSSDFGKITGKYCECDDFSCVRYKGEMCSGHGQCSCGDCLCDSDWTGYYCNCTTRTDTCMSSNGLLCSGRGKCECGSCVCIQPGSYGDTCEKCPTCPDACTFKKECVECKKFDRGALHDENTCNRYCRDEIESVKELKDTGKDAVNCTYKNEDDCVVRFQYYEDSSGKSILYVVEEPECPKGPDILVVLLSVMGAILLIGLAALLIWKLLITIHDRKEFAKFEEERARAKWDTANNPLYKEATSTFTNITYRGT
Protocol: Assay to determine binding of DI17E6 antibody to alpha V integrin receptor subunit The ability of the DI17E6 antibody to bind alpha V integrin was assayed using an ELISA. Briefly, various amounts of antibody were added to wells containing alpha V integrin, wells were then washed, and the bound antibody was assayed according to standard procedures.

[13] = test system: platelet thrombus formation; assay: Thrombus formation in perfusion chamber; type: cell-based; details: dose-dependent
Protocol: To exclude possible side effects of the antibody on platelets, EMD 525797 was evaluated for inhibition of platelet aggregation in vitro with human platelet rich plasma/collagen. […] Aggregation and activation studies were carried out using Platelet Rich Plasma (PRP). Thrombus formation by perfusion chamber with exposed subendothelial matrix.

[14] = test system: αv-integrins; assay: Species specificity (immuno precipitation, western blotting); type: binding, human and monkey
Protocol: The molecular basis for this unusual profile has been unequivocally established by epitope mapping, sequence comparison, and x-ray co-crystallography. The epitope recognized by DI-17E6 is confirmed as unique to human and monkey by immuno precipitation and western blotting analysis performed with several species.

[15] = First clinical study in healthy volunteers, anti-drug antibodies; type: in vivo, human
Description: This was meanwhile confirmed by a first clinical study carried out in the US in 2006/2007. […] In contrast to that, mouse 17E6 develops in animal models a strong immune response.

[16] = ADCC and CDC; type: cell-based
[17] = test system: VEGF-induced migration of human endothelial cells on vitronectin; details: read-out: EC50, block of VEGF-induced migration of human endothelial cells on vitronectin
[18] = Serum levels and anti-antibody response in monkey Matrigel plug experiment; type: in vivo; details: monkeys, single i.v. injection, up to end of study
Protocol: Serums were collected at three different points (from the legs): immediately before antibody injection, immediately (1-2 minutes) after antibody injection, and at the end of the study before animal sacrifice. […] To detect given serum dilution) were found at the two different time points in serum: immediately after antibody administration and at the end of the study.

[19] = 4-weeks / repeat-dose toxicology study; type: in vivo, cynomolgus monkey
[20] = HUVEC, 10 ng/ml FGF-2, 72 hours, single agent
[21] = Homo sapiens, HUVEC, 72 h, 10 ng/ml FGF-2, 72 hours, single agent

Molecule: O=c1[nH]cc(F)c(=O)[nH]1 [5FU]
- IC50 [1, 20]: 14500 nM
- additive effect with Cilengitide [1]: yes
- additive effect with DI-17E6 [1]: yes
- additive effect with Mab 17E6 [1]: yes

Molecule: CC[C@@]1(O)C(=O)OCc2c1cc1n(c2=O)Cc2cc3ccccc3nc2-1 [Camptothecin]
- IC50 [1, 21]: 80 nM
- additive effect with Cilengitide [1]: yes
- additive effect with DI-17E6 [1]: yes
- additive effect with Mab 17E6 [1]: yes

Molecule: N.N.[Cl][Pt][Cl] [Cisplatinin]
- IC50 [1, 20]: 13200 nM
- additive effect with Cilengitide [1]: yes
- additive effect with DI-17E6 [1]: yes
- additive effect with Mab 17E6 [1]: yes

Molecule: COc1cccc2c1C(=O)c1c(O)c3c(c(O)c1C2=O)C[C@@](O)(C(=O)CO)C[C@@H]3O[C@H]1C[C@H](N)[C@H](O)[C@H](C)O1 [Doxorubicin]
- IC50 [1, 21]: 200 nM
- additive effect with Cilengitide [1]: yes
- additive effect with DI-17E6 [1]: yes
- additive effect with Mab 17E6 [1]: yes

Molecule: C[C@]12CC[C@@H]3c4ccc(OC(=O)N(CCCl)CCCl)cc4CC[C@H]3[C@@H]1CC[C@@H]2O [Estramustine]
- IC50 ([1]; Homo sapiens, HUVEC, 72 h): 182000 nM
- additive effect with Cilengitide [1]: no
- additive effect with DI-17E6 [1]: no
- additive effect with Mab 17E6 [1]: no

Molecule: COc1cc([C@@H]2c3cc4c(cc3[C@@H](O[C@@H]3O[C@@H]5CO[C@@H](C)O[C@H]5[C@H](O)[C@H]3O)[C@H]3COC(=O)[C@H]23)OCO4)cc(OC)c1O [Etoposide]
- IC50 [1, 21]: 700 nM
- additive effect with Cilengitide [1]: yes
- additive effect with DI-17E6 [1]: yes
- additive effect with Mab 17E6 [1]: yes

Molecule: Nc1ccn([C@@H]2O[C@H](CO)[C@@H](O)C2(F)F)c(=O)n1 [Gemcitabine]
- tumor size and weight, monotherapy [2]: not active
- IC50 [1, 21]: 4 nM
- additive effect with Cilengitide [1]: yes
- additive effect with DI-17E6 [1]: yes
- additive effect with Mab 17E6 [1]: yes

Molecule: N[C@@H](Cc1ccc(N(CCCl)CCCl)cc1)C(=O)O [Melphalan]
- IC50 ([1]; Homo sapiens, HUVEC, 72 h): 11400 nM
- additive effect with Cilengitide [1]: yes
- additive effect with DI-17E6 [1]: yes
- additive effect with Mab 17E6 [1]: yes

Molecule: CC(=O)O[C@H]1C(=O)[C@@]2(C)[C@H]([C@H](OC(=O)c3ccccc3)[C@]3(O)C[C@H](OC(=O)[C@H](O)[C@@H](NC(=O)c4ccccc4)c4ccccc4)C(C)=C1C3(C)C)[C@]1(OC(C)=O)CO[C@@H]1C[C@@H]2O [Taxol, Paclitaxel]
- IC50 [1, 20]: 0.3 ng/mL
- IC50 [1, 21]: 0.27 ng/mL
- IC50 ([1]; Homo sapiens, HUVEC, read-out: IC50 in combination with 17E6, HUVEC, combination with 17E6): 0.18 ng/mL
- IC50 ([1]; Homo sapiens, HUVEC, read-out: IC50 in combination with Cilengitide, HUVEC, combination with Cilengitide): 0.13 ng/mL
- IC50 ([1]; Homo sapiens, HUVEC, read-out: IC50 in combination with DI-17E6, HUVEC, combination with DI-17E6): 0.1 ng/mL
- additive effect with Cilengitide [1]: yes
- additive effect with DI-17E6 [1]: yes
- additive effect with Mab 17E6 [1]: yes

Molecule: Cn1nnc2c(C(N)=O)ncn2c1=O [Temozolmide]
- IC50 (in words) [1, 20]: inactive
- additive effect with Cilengitide [1]: no
- additive effect with DI-17E6 [1]: no
- additive effect with Mab 17E6 [1]: no

Molecule: CC[C@]1(O)C[C@H]2CN(CCc3c([nH]c4ccccc34)[C@@](C(=O)OC)(c3cc4c(cc3OC)N(C=O)[C@H]3[C@@](O)(C(=O)OC)[C@H](OC(C)=O)[C@]5(CC)C=CCN6CC[C@]43[C@@H]65)C2)C1 [Vincrisitin]
- IC50 [1, 21]: 0.7 nM
- additive effect with Cilengitide [1]: yes
- additive effect with DI-17E6 [1]: yes
- additive effect with Mab 17E6 [1]: yes

Molecule: DI-17E6: engineered de-immunized anti-αv integrin antibody: 17E6 CDRs, h425 light chain frameworks, human IgG2 with modified IgG1 hinge, N297Q, F296A
- tumor volume ([3]; high dose (500 ug/ml)): complete reduction of tumor volume
- tumor volume/size ([3]; low (1 ug/ml) to medium (100 ug/ml serum) doses): can reduce tumor volume/size
- EC50 [4]: ~10 nM
- Total score, heavy chain ([5]; heavy chain): 85
- Total score, light chain ([5]; light chain): 92
- IC50 [1, 20]: 4 ng/mL
- effect on the chemotherapeutic agent [6]: not more than additive affects
- new blood vessel formation (hemoglobin content of plugs) ([7]; 10 mg/Kg i.v. once): inactive
- new blood vessel formation (hemoglobin content of plugs) ([7]; 30 mg/Kg i.v. once): highly efficacious
- mutagenic potential [8]: not mutagenic
- T/C at day 40, end of treatment [9]: 25%
- serum trough values ([9]; mice): 100 µg/mL
- growth of M21-L tumors [10]: inhibited growth
- monkey antibodies against the antibody [11]: no monkey antibodies against DI-17E6 could be detected
- binding to αvβ3 integrin (in words) [12]: similar
- binding to αvβ3 integrin (in words) ([12]; listed as DI-17E6-g2h(NtoQ)(C60Y)): retains binding affinity
- platelet thrombus formation in the perfusion chamber [13]: blocks
- species specificity [14]: human and monkey αv-integrins only
- anti-drug antibodies in volunteers ([15]; group of 250 mg, 6 volunteers): one volunteer developed anti-drug antibodies
- anti-drug antibodies in volunteers ([15]; higher dose groups (500 mg and more)): no volunteer developed any immune response; also recorded: not detected
- ADCC and CDC [16]: neither antibody dependent cell cytotoxicity (ADCC) nor complement dependent cytotoxicity (CDC)
- EC50 [17]: ~50 nM
- serum levels of antibody [18]: high serum levels at each time-point
- tolerability ([19]; 10, 33 and 100 mg/kg once weekly for 4 weeks, intravenous infusion (1 h)): well tolerated
- treatment-related effects in 4-weeks toxicology study ([19]; clinical observations, body weight, ECG, clinical pathology, organ weight, histopathology): did not reveal any treatment-related effects
- safety pharmacology alerts ([19]; repeat-dose-toxicity studies in cynomolgus monkey): No safety pharmacology alerts
